Results: patent US20010027213A1, “Use of pyrethroid compounds to promote hair growth” (priority 1998, published 2001)
Marks after values point to notes of the source that are not given here.

Legend:
Format in all cases: in vivo
C3H strain mice [1] = experiment: Hair growth on clipped back skin, repeat with minoxidil control, Example 5; set-up: Level of hair growth (unaided visual inspection): scale not given here; details: for Promoting hair growth: concentrations of 0.1% and 1% in ethanol solutions
Description: (§1) The ability of topical administration of pyrethroid compounds to promote hair growth was assessed in female C3H strain mice (10 weeks old; n=5/group). Hair on the back skin of the mice was clipped carefully with an electric clipper. 5 μL/cm^2 of the five compositions tested in the examples above were applied to the mice daily. The level of hair growth at the applied skin areas were evaluated by unaided visual inspection at the indicated time. Cyclosporin A was used as a control.
The experiment described in Example 4 was repeated with a commercially available hair growth-promoting compound (5% minoxidil) as a control.

C3H strain mice [2] = experiment: Hair growth on clipped back skin, topical daily application, Example 4; set-up: Level of hair growth (unaided visual inspection): scale not given here; details: for Promoting hair growth: 1% topical daily; for Level of hair growth (unaided visual inspection): 1%, 5 μL/cm^2 daily, n=5/group
Description: as §1, with “time.” for “time. Cyclosporin A was used as a control.”

mice (Sencar strain) = experiment: Ear thickness after TPA plus pyrethroid application, Example 2
Description: Another ear thickness experiment was performed. Ear thickness of mice (Sencar strain, female, 10 weeks of age, n =3/group) was measured with a thickness gage (Mitsutoyo Corp.). After measuring the thickness of both ears at the beginning of the experiment, 20 μL of 12-O-tetradecanoyl-phorbol 13-acetate (TPA) at a concentration of 10^−4 M in acetone was applied on both ears, followed by the application of 10 μL of ethanol on the left ears and 10 μL of the four compositions tested in Example 1 on the right ears (at a concentration of 1% of pyrethroid compound in ethanol solution). Again, ear thickness was monitored over three consecutive days following administration of the compositions.

mice (C3H strain) = experiment: Ear thickness (primary skin irritancy) after topical application, Example 1; details: for Ear thickness compared to ethanol: 1% in ethanol
Description: The following example was performed to determine if pyrethroid compounds cause skin irritation (as indicated by ear thickness in mice). Skin irritants may contribute to promoting hair growth.
Prior to the experiment, ear thickness of mice (C3H strain, female, 16 weeks of age, n=3/group) was measured with a thickness gage (Mitsutoyo Corp.). After measuring ear thickness of both ears, 10 μL of ethanol was applied on left ear and 10 μL of a pyrethroid solution (1% pyrethroid compound in ethanol) was applied to the right ear. Ear thickness was measured for three consecutive days after administration.

mice of the C3H strain = experiment: Skin irritancy on clipped back skin, visual score, Example 3; details: three repeated topical administration, 1% in ethanol
Description: This experiment was conducted to test the skin irritancy of the compositions of this invention on hair-growing areas of test subjects, i.e., female mice (10 weeks old) of the C3H strain (n=5 group). After clipping the hair of the back skin of mice with an electric clipper, 5 μL/cm^2 of each four composition tested in Examples 1 and 2 (at a concentration of 1% in an ethanol solution) were applied. The application was administered once a day, for 3 consecutive days. Skin irritation was evaluated by unaided visual inspection at the end of the third day.

[3] = day 0 (before application), Sencar female mice, n=3
[4] = day 1, 20 μL TPA 10^−4 M in acetone then 10 μL of 1% in ethanol, Sencar mice
[5] = day 2, 20 μL TPA 10^−4 M in acetone then 10 μL of 1% in ethanol, Sencar mice
[6] = day 3, 20 μL TPA 10^−4 M in acetone then 10 μL of 1% in ethanol, Sencar mice
[7] = day 0 (before application), C3H female mice, n=3
[8] = day 1, 10 μL of 1% in ethanol on right ear, C3H mice
[9] = day 2, 10 μL of 1% in ethanol on right ear, C3H mice
[10] = day 3, 10 μL of 1% in ethanol on right ear, C3H mice

Compound	Level of hair growth (unaided visual inspection) (C3H strain mice [1]; 0.01%, Week 1)	Level of hair growth (unaided visual inspection) (C3H strain mice [1]; 0.01%, Week 2)	Level of hair growth (unaided visual inspection) (C3H strain mice [1]; 0.01%, Week 3)	Level of hair growth (unaided visual inspection) (C3H strain mice [1]; 0.01%, Week 4)	Level of hair growth (unaided visual inspection) (C3H strain mice [1]; 0.01%, Week 5)	Level of hair growth (unaided visual inspection) (C3H strain mice [1]; 0.01%, Week 6)	Level of hair growth (unaided visual inspection) (C3H strain mice [1]; 0.1%, Week 1)	Level of hair growth (unaided visual inspection) (C3H strain mice [1]; 0.1%, Week 2)	Level of hair growth (unaided visual inspection) (C3H strain mice [1]; 0.1%, Week 3)	Level of hair growth (unaided visual inspection) (C3H strain mice [1]; 0.1%, Week 4)	Level of hair growth (unaided visual inspection) (C3H strain mice [1]; 0.1%, Week 5)	Level of hair growth (unaided visual inspection) (C3H strain mice [1]; 0.1%, Week 6)	Level of hair growth (unaided visual inspection) (C3H strain mice [1]; 1%, Week 1)	Level of hair growth (unaided visual inspection) (C3H strain mice [1]; 1%, Week 2)	Level of hair growth (unaided visual inspection) (C3H strain mice [1]; 1%, Week 3)	Level of hair growth (unaided visual inspection) (C3H strain mice [1]; 1%, Week 4)	Level of hair growth (unaided visual inspection) (C3H strain mice [1]; 1%, Week 5)	Level of hair growth (unaided visual inspection) (C3H strain mice [1]; 1%, Week 6)	Level of hair growth (unaided visual inspection) (C3H strain mice [2]; Day 7)	Level of hair growth (unaided visual inspection) (C3H strain mice [2]; Day 14)	other results
CC1(C)C(C=C(Cl)Cl)C1C(=O)OC(C#N)c1cccc(Oc2ccccc2)c1 (stereo not drawn) [Cypermethrin, cypermethrin]	0	0	0	0	0	0	0	0	5	5	5	5	0	0	5	5	5	5	0	0	Promoting hair growth (C3H strain mice [1]): effective in promoting hair growth; Promoting hair growth (C3H strain mice [2]): effective in promoting hair growth; Level of hair growth (unaided visual inspection) (C3H strain mice [2]; Day 19): 2; Level of hair growth (unaided visual inspection) (C3H strain mice [2]; Day 29): 4; Level of hair growth (unaided visual inspection) (C3H strain mice [2]; Day 36): 5; Right ear thickness (mice (Sencar strain); [3]): 24.0 ×0.01 mm; Right ear thickness (mice (Sencar strain); [4]): 26.7 ×0.01 mm; Right ear thickness (mice (Sencar strain); [5]): 28.3 ×0.01 mm; Right ear thickness (mice (Sencar strain); [6]): 27.3 ×0.01 mm; Ear thickness compared to ethanol (mice (C3H strain); C3H mice): did not increase ear thickness; Right ear thickness (mice (C3H strain); [7]): 27.7 ×0.01 mm; Right ear thickness (mice (C3H strain); [8]): 27.7 ×0.01 mm; Right ear thickness (mice (C3H strain); [9]): 27.3 ×0.01 mm; Right ear thickness (mice (C3H strain); [10]): 28.0 ×0.01 mm; Skin irritation (redness) (mice of the C3H strain): failed to cause skin irritation
CC1(C)[C@H](C(=O)O[C@H](C#N)c2cccc(Oc3ccccc3)c2)[C@@H]1C=C(Br)Br [Deltamethrin, deltamethrin]	0	0	1	1	1	3	0	0	5	5	5	5	0	2	5	5	5	5	0	0	Promoting hair growth (C3H strain mice [1]): effective in promoting hair growth; Promoting hair growth (C3H strain mice [2]): effective in promoting hair growth; Level of hair growth (unaided visual inspection) (C3H strain mice [2]; Day 19): 1; Level of hair growth (unaided visual inspection) (C3H strain mice [2]; Day 29): 5; Level of hair growth (unaided visual inspection) (C3H strain mice [2]; Day 36): 5; Right ear thickness (mice (Sencar strain); [3]): 26.0 ×0.01 mm; Right ear thickness (mice (Sencar strain); [4]): 27.3 ×0.01 mm; Right ear thickness (mice (Sencar strain); [5]): 29.0 ×0.01 mm; Right ear thickness (mice (Sencar strain); [6]): 28.0 ×0.01 mm; Ear thickness compared to ethanol (mice (C3H strain); C3H mice): did not increase ear thickness; Right ear thickness (mice (C3H strain); [7]): 27.0 ×0.01 mm; Right ear thickness (mice (C3H strain); [8]): 27.3 ×0.01 mm; Right ear thickness (mice (C3H strain); [9]): 27.3 ×0.01 mm; Right ear thickness (mice (C3H strain); [10]): 28.0 ×0.01 mm; Skin irritation (redness) (mice of the C3H strain): failed to cause skin irritation
CC(C)C(C(=O)OC(C#N)c1cccc(Oc2ccccc2)c1)c1ccc(Cl)cc1 (stereo not drawn) [Fenvalerate, fenvalerate]	0	0	0	0	0	0	0	0	5	5	5	5	0	0*	3*	5	5	5	0	0	Promoting hair growth (C3H strain mice [1]): effective in promoting hair growth; Promoting hair growth (C3H strain mice [2]): effective in promoting hair growth; Level of hair growth (unaided visual inspection) (C3H strain mice [2]; Day 19): 1; Level of hair growth (unaided visual inspection) (C3H strain mice [2]; Day 29): 4; Level of hair growth (unaided visual inspection) (C3H strain mice [2]; Day 36): 4; Right ear thickness (mice (Sencar strain); [3]): 24.0 ×0.01 mm; Right ear thickness (mice (Sencar strain); [4]): 26.3 ×0.01 mm; Right ear thickness (mice (Sencar strain); [5]): 26.7 ×0.01 mm; Right ear thickness (mice (Sencar strain); [6]): 26.7 ×0.01 mm; Ear thickness compared to ethanol (mice (C3H strain); C3H mice): did not increase ear thickness; Right ear thickness (mice (C3H strain); [7]): 27.3 ×0.01 mm; Right ear thickness (mice (C3H strain); [8]): 28.0 ×0.01 mm; Right ear thickness (mice (C3H strain); [9]): 28.0 ×0.01 mm; Right ear thickness (mice (C3H strain); [10]): 27.0 ×0.01 mm; Skin irritation (redness) (mice of the C3H strain): failed to cause skin irritation
Nc1cc(N2CCCCC2)nc(N)[n+]1[O-] [Minoxidil, minoxidil]	–	–	–	–	–	–	–	–	–	–	–	–	–	–	–	–	–	–	–	–	Level of hair growth (unaided visual inspection) (C3H strain mice [1]; 5%, Week 1): 0; Level of hair growth (unaided visual inspection) (C3H strain mice [1]; 5%, Week 2): 0; Level of hair growth (unaided visual inspection) (C3H strain mice [1]; 5%, Week 3): 2; Level of hair growth (unaided visual inspection) (C3H strain mice [1]; 5%, Week 4): 3; Level of hair growth (unaided visual inspection) (C3H strain mice [1]; 5%, Week 5): 4; Level of hair growth (unaided visual inspection) (C3H strain mice [1]; 5%, Week 6): 4
CC1(C)C(C=C(Cl)Cl)C1C(=O)OCc1cccc(Oc2ccccc2)c1 (stereo not drawn) [Permethrin, permethrin]	0	0	0	0	0	0	0	0	0	0	0	0	0	0	0	0	0	1	0	0	Level of hair growth (unaided visual inspection) (C3H strain mice [2]; Day 19): 0; Level of hair growth (unaided visual inspection) (C3H strain mice [2]; Day 29): 0; Level of hair growth (unaided visual inspection) (C3H strain mice [2]; Day 36): 0; Right ear thickness (mice (Sencar strain); [3]): 23.3 ×0.01 mm; Right ear thickness (mice (Sencar strain); [4]): 27.3 ×0.01 mm; Right ear thickness (mice (Sencar strain); [5]): 27.0 ×0.01 mm; Right ear thickness (mice (Sencar strain); [6]): 27.7 ×0.01 mm; Ear thickness compared to ethanol (mice (C3H strain); C3H mice): did not increase ear thickness; Right ear thickness (mice (C3H strain); [7]): 27.3 ×0.01 mm; Right ear thickness (mice (C3H strain); [8]): 27.7 ×0.01 mm; Right ear thickness (mice (C3H strain); [9]): 27.7 ×0.01 mm; Right ear thickness (mice (C3H strain); [10]): 28.3 ×0.01 mm; Skin irritation (redness) (mice of the C3H strain): failed to cause skin irritation
